Laboratory results as given in publication PMC5318439, “The Novel Toll-Like Receptor 2 Agonist SUP3 Enhances Antigen Presentation and T Cell Activation by Dendritic Cells” (Frontiers in Immunology, 2017).
Where a SMILES comes first, the peptide text is derived from it. The star is where a group is joined. X1 = CCCCCCCCCCCCCCNC(=O)OC[C@H](C*)OC(=O)NCCCCCCCCCCCCCC; Palmitoyl = CCCCCCCCCCCCCCCC(=O)*

Key:
CD11b^+ cDCs = experiment: Antigen presentation by CD11b+ cDCs to OT-II CD4+ T cells in vitro; assay type: cell-based, mice; settings: CD11b+ cDCs stimulated with 200 nM
Protocol: Antigen presentation assays were performed as previously described ([38]). Briefly, ovalbumin (OVA) (10 µg/mL; Sigma A7641) pulsed cDCs were stimulated with or without TLR agonists for 4 h. OT-I CD8^+ T cells and OT-II CD4^+ T cells were purified and then labeled by carboxyfluorescein diacetate succinimidyl ester (CFSE) (1 µM; Molecular Probes C34554). CD8^+ cDCs were cocultured with OT-I CD8^+ T cells for 60 h, whereas CD11b^+ cDCs were cocultured with OT-II CD4^+ T cells for 96 h, both in the presence of granulocyte-macrophage colony-stimulating factor (GM-CSF) (20 ng/mL; Peprotech 315-03). Proliferated OT-I or OT-II T cells were defined as diluted CFSE signal analyzed by flow cytometry. The numbers of T cells were counted by AccuCheck counting beads (Molecular Probes PCB100). […] Cells were washed twice with cold medium and analyzed by flow cytometry.
Figure 5 SUP3 enhanced antigen presentation ability of CD11b^+ conventional dendritic cells (cDCs) and production of antibodies against thymus-dependent (TD) antigens. […] Three days after immunization, division of OT-II CD4^+ T cells from inguinal lymph nodes were analyzed by flow cytometry (B). Absolute numbers of proliferated OT-II CD4^+ T cells were calculated in (C). […] Cells were then thoroughly washed and cocultured with CFSE-stained OT-II CD4^+ T cells for 4 days and analyzed by flow cytometry. […]

TLR2 = TLR2 (Homo sapiens, UniProt O60603); experiment: Affinity of TLR2 agonist for TLR2; assay type: binding; settings: compared with Pam3; Figure S3A
Excerpt: Pam3 is a lipopeptide and serves as a TLR2 agonist through binding to TLR2/TLR1 heterodimer. Although Pam3 is widely used as a TLR2 agonist, some intrinsic problems remain in detailed mechanism studies and drug development. The two ester groups of Pam3 can be easily hydrolyzed in plasma, and the hydroxyl group in serine could be readily oxidized in physiological conditions (Figure S1A in Supplementary Material). […] In addition, we displaced serine residue in Pam3 with glycine residue to eliminate this chiral center (Figures S1A,B in Supplementary Material). Since the third lysine residue in Pam3 is crucial for H bonding, we kept three lysine residues in the new molecule and removed the forth lysine residue to further reduce the molecular weight of the new TLR2 agonist, (2S,5S,8S,14R,18R)-2,5,8-tris(4-aminobutyl)-4,7,10,13,21-pentaoxo-14-palmitamido-18-((tetradecylcarbamoyl)oxy)-20-oxa-16-thia-3,6,9,12,22-pentaazahexatriacontan-1-oic acid. It is termed SUP3 (Figure 1A; Figures S1A,B in Supplementary Material). Chemical characterization of SUP3 by ^1H nuclear magnetic resonance and electrospray ionization mass spectrum analysis further confirm the structure (Figures S2A,B in Supplementary Material).

Chain of TLR2 (O60603 21-784, species assumed): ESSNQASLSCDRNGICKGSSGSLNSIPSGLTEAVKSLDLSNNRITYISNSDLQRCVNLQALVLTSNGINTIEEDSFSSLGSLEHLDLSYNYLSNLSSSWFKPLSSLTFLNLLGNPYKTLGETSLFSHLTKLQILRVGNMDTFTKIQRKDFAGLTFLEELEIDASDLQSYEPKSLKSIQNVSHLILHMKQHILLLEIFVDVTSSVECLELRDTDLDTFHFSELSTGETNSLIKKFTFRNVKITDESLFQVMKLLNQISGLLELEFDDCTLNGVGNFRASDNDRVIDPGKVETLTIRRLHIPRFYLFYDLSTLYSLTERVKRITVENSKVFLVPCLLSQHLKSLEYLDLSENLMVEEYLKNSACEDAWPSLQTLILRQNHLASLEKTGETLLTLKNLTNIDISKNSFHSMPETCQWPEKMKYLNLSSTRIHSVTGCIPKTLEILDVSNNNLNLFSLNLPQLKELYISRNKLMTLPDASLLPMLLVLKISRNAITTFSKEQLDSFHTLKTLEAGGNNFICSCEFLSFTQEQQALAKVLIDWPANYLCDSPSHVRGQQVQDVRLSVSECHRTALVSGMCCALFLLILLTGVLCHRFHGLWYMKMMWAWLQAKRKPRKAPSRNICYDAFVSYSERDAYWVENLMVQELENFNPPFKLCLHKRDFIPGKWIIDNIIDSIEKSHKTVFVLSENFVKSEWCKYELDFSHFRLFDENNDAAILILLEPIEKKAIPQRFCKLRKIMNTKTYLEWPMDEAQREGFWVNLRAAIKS

affinity (TLR2): comparable with Pam3
Compound: CCCCCCCCCCCCCCCC(=O)N[C@@H](CSC[C@@H](COC(=O)NCCCCCCCCCCCCCC)OC(=O)NCCCCCCCCCCCCCC)C(=O)NCC(=O)N[C@@H](CCCCN)C(=O)N[C@@H](CCCCN)C(=O)N[C@@H](CCCCN)C(=O)O [SUP3, (2S,5S,8S,14R,18R)-2,5,8-tris(4-aminobutyl)-4,7,10,13,21-pentaoxo-14-palmitamido-18-((tetradecylcarbamoyl)oxy)-20-oxa-16-thia-3,6,9,12,22-pentaazahexatriacontan-1-oic acid] (Palmitoyl-C(X1)GKKK-OH)
OT-II CD4+ T cell proliferation in vitro (CD11b^+ cDCs): enhanced OT-II CD4^+ T cell proliferation
